For one data set, the system named is monoclonal antibody-01. As to the kind of experiment: Spotted peptide constructs tested against monoclonal antibody-01, indirect fluorescence detection. Format: binding. The following applies: peptides spotted in 1 μl to 0.25 nl. The procedure:
FIG. 2. A) Microturisation of spots of peptide constructs. Constructs were tested against the same monoclonal antibody-01 as was tested in FIG. 1. Binding was made visible using indirect fluorescence detection. Peptide 1, sequence with an N-terminal bromoacetamide, was synthesised on the complete surface. Peptide construct 6-1 is the same as construct 125 in FIG. 1. Peptides 2 up to 8, containing a cysteine residue, were spotted in different volumes ranging from 1 μl to 0.25 nl using piezo drop-on-demand technology. […] The identified epitope is shown in black. The disclosed peptide is shown in SEQ ID NO: 7.
The bromoacetamide peptide was covalently bound to a functionalised polypropylene/polyacrylic acid solid support in 3 μl wells as described above. The cysteine-containing sequences were synthesised on and cleaved from functionalised polyethylene pins as described above. […] On a surface of a solid support peptides are synthesized with a bromoacetamide group at the N-terminus as described above. […]

The subject of another data set is monoclonal antibody-03. As to the kind of experiment: Control test of peptide-covered surface with monoclonal antibody-03, indirect fluorescence detection. Format: binding. Particulars: peptide present on the whole square.
Data set [1] concerns biotinylated DNA (3′-TATTCTCCGGACGAGTACCGTGAAGGGTC-Biotin-5′). As to the kind of experiment: Binding of biotinylated DNA by the construct of two PNAs, detected with streptavidin-horse radish peroxidase and ABTS. The following applies: miniwell setup, polypropylene surface. The text has this: FIG. 10. A) Schematic presentation of a DNA/RNA scan. The constructs are scanned with a labeled protein, for example a regulatory protein, or another DNA or PNA strand (top), or alternatively overlapping peptides are scanned with biotynilated RNA, DNA or PNA (bottom). The oligonucleotide sequences are shown in SEQ ID NOS 661-666, respectively, in order of appearance. B) Working example with biotinylated DNA on construct of two PNA's.
Chemistry in short: Detection of the binding of Biotinylated DNA by the construct of two PNAs. In miniwell setup the polypropylene (PP) surface of the miniwells was functionalized with carboxyl groups using gamma irradiation (12 kGy) in the presence of CuSO4 and 6% acrylic acid. Subsequently the PP surface was amino group functionalized (using BocHMDA/DCC/HOBt with subsequent removal of the Boc group with TFA). Next the amino groups were converted in thiol groups by coupling of Fmoc-Cys-(Trt) using DCC/HOBt, removal of the Fmoc group, acetylation of the amino group followed by removal of the Trt by TFA/triethyl silan. To this PP surface functionalized with thiol groups a PNA (PNA1) was coupled which contains N-terminal a bromoacetyl group and C-terminal an extra Cys-S-tBu (the Bromo group of the PNA reacts to the thiol group of the surface). After removal of the S-tBu (using NaBH4) of the Cys-S-tBu, the coupled PNA has a thiol group on C-terminal end. […]

*: point of attachment. BrAc = O=C(CBr)*

ADSLYTYPVATQ (BrAc-ADSLYTYPVATQ-NH2): the “recognition / binding by monoclonal antibody-01” value in the data set with monoclonal antibody-01 is listed as “does not recognize”. Also, the “recognition by monoclonal antibody-03” value in the data set with monoclonal antibody-03 is “recognizes”.

For “GAGGCCTGCTspacer ATGGCACTTC (PNA, spacer, thioether coupling to polypropylene surface, chemistry not fully specified) [PNA construct, construct of PNA1 and PNA2 coupled via thioether on polypropylene surface]”, the “binding of biotinylated DNA to the PNA construct” value in data set [1] was “binding”.

The values above are taken from US20080139407A1, “Segment synthesis” (PEPSCAN SYSTEMS B. V., priority 2000, published 2008).
